Measurements: article PMC5298231, “The Malaria Parasite's Lactate Transporter PfFNT Is the Target of Antiplasmodial Compounds Identified in Whole Cell Phenotypic Screens” (PLoS Pathogens, 2017)
Where two headings read alike, the source gives them in different places.

System: erythrocytes infected with 3D7 trophozoites
Format: cell-based, Plasmodium falciparum

COc1ccc2c(c1)OC(O)(C(F)(F)C(F)(F)F)CC2=O (stereo not shown) [MMV007839]
Intracellular NADH level, treated vs untreated (6 μM): decreased | Intracellular orotate level, treated vs untreated (6 μM): decreased | Intracellular orotidine-5-phosphate level, treated vs untreated (6 μM): decreased | Intracellular pyruvate level, treated vs untreated (6 μM): significant elevation | Intracellular sn-glycerol-3-phosphate level, treated vs untreated (6 μM): significant elevation | Increase in lactate abundance in treated relative to untreated infected erythrocytes (6 μM, at each time point (1 h, 3 h, 6 h)): 6 fold | 1-3 (2-3)-Bisphopshateglycerate, Average (1hr): 0.8283 | 2-Hydroxyglutarate, Average (1hr): -0.2432 | 2-Ketoglutarate, Average (1hr): -0.436 | 3-Phoshoglycerate, Average (1hr): 0.004248 | 3-Phospho-serine, Average (1hr): -0.2778 | 4-Aminobutanoate, Average (1hr): 1.193 | 5-Phosphoribosyl-Pyrophosphate, Average (1hr): 0.3507 | 6-Phosphogluconate, Average (1hr): -0.04985 | ADP, Average (1hr): -0.09347 | AMP, Average (1hr): 0.1805 | ATLS, Average (1hr): 0.06136 | ATP, Average (1hr): -0.05715 | Acetyl-CoA, Average (1hr): -0.4647 | Acetyl-L-alanine, Average (1hr): 0.1907 | Adenine, Average (1hr): -0.6208 | Arginine, Average (1hr): 0.574 | Asparagine, Average (1hr): 0.04802 | Aspartate, Average (1hr): 0.001665 | CDP, Average (1hr): -0.01089 | CDP-ethanolamine, Average (1hr): 0.2765 | CMP, Average (1hr): 0.1684 | CTP, Average (1hr): -0.2804 | Cholesteryl sulfate, Average (1hr): -0.2972 | Citrate, Average (1hr): -0.1229 | CoA, Average (1hr): -0.4384 | Cyclic AMP, Average (1hr): -0.8135 | Cytidine, Average (1hr): -0.7749 | DALT, Average (1hr): -0.5028 | DEVG, Average (1hr): 0.001555 | DGLA, Average (1hr): -0.4525 | DLS, Average (1hr): -0.423 | Deoxycytidine, Average (1hr): 1.92 | Dihydroorotate, Average (1hr): -0.5278 | ESFG, Average (1hr): 0.4045 | EVGG, Average (1hr): 0.01776 | Erythrose 4-Phosphate, Average (1hr): -0.3514 | FAD, Average (1hr): -0.08791 | FMN, Average (1hr): -0.2425 | Farnesyl diphosphate, Average (1hr): -0.0002912 | Folate, Average (1hr): -0.2316 | Fructose-1-6-Bisphosphate, Average (1hr): 1.122 | Fructose-6-Phosphate, Average (1hr): 0.08818 | GDP, Average (1hr): -0.6846 | GDP-mannose, Average (1hr): 0.01571 | GMP, Average (1hr): -1.125 | GTP, Average (1hr): -0.5732 | Geranylgeranyl pyrophosphate, Average (1hr): -0.5786 | Glucono-1-4-Lactone, Average (1hr): 1.593 | Glucose-6-Phosphate, Average (1hr): -0.1863 | Glutamate, Average (1hr): 0.1005 | Glutamine, Average (1hr): 0.7703 | Glutathione Disulfide, Average (1hr): 0.1943 | Glutathione, Average (1hr): -0.1919 | Glyceraldehyde 3-Phosphate, Average (1hr): -0.7606 | Glycerone Phosphate, Average (1hr): 0.5926 | HLD, Average (1hr): -0.3486 | HVDD, Average (1hr): -0.6691 | Histidine, Average (1hr): 0.5758 | Homoserine, Average (1hr): 0.3097 | Hydroxy-L-proline, Average (1hr): 0.2443 | Hypoxanthine, Average (1hr): 0.3704 | IDP, Average (1hr): -0.1758 | IMP, Average (1hr): -0.02277 | Inosine, Average (1hr): 0.5137 | Isoleucine, Average (1hr): 0.3056 | LD, Average (1hr): 0.3825 | Lactate, Average (1hr): 2.358 | Leucine, Average (1hr): 0.1553 | Lysine, Average (1hr): 1.68 | Malate, Average (1hr): 0.1358 | Mannitol, Average (1hr): 0.0108 | Methionine, Average (1hr): 0.2615 | Myristic acid, Average (1hr): 0.2261 | N-Acetyl-glutamate, Average (1hr): -0.007377 | N-Carbamoyl-L-Aspartate, Average (1hr): -1.378 | NAD+, Average (1hr): 0.03204 | NADH, Average (1hr): -1.36 | NADP+, Average (1hr): -0.2617 | Ornithine, Average (1hr): 0.2172 | Orotate, Average (1hr): -1.216 | Orotidine 5-Phosphate, Average (1hr): -1.5 | Orotidine, Average (1hr): -0.4366 | PAEF, Average (1hr): -0.4364 | PD, Average (1hr): 0.2765 | PDAV, Average (1hr): 0.344 | PE, Average (1hr): 1.21 | PEE, Average (1hr): 0.2418 | PHF, Average (1hr): 1.069 | PPVQ, Average (1hr): 0.02129 | PVNF, Average (1hr): -0.3384 | PVQ, Average (1hr): 0.8749 | PVQA, Average (1hr): -0.7385 | Pantothenate, Average (1hr): -0.01312 | Phenylalanine, Average (1hr): 0.1979 | Phosphoenolpyruvate, Average (1hr): 0.299 | Pipecolate, Average (1hr): 0.4539 | Proline, Average (1hr): 0.1646 | Pyridoxine, Average (1hr): 0.1656 | Pyruvate, Average (1hr): 1.42 | Ribose-5-Phosphate, Average (1hr): 0.9115 | S-Adenosyl-L-homocysteine, Average (1hr): -0.1282 | SDGLA, Average (1hr): -0.148 | SFGD, Average (1hr): -0.0354 | Sedoheptulose-1/7-Phosphate, Average (1hr): 0.1578 | Serine, Average (1hr): 0.004434 | Succinate Semialdehyde, Average (1hr): -0.3802 | Succinate, Average (1hr): 0.4975 | TNVK, Average (1hr): -0.9736 | Threonine, Average (1hr): 0.4202 | Tryptophan, Average (1hr): 0.09509 | Tyrosine, Average (1hr): 0.1697 | UDP, Average (1hr): -0.1565 | UDP-N-acetyl-D-glucosamine, Average (1hr): 0.0845 | UDP-glucose, Average (1hr): -0.08513 | UMP, Average (1hr): -0.3602 | Uracil, Average (1hr): -0.4869 | Valine, Average (1hr): 0.1364 | Xanthine, Average (1hr): 0.3309 | dADP, Average (1hr): -0.3244 | dATP, Average (1hr): 0.05147 | dCDP, Average (1hr): 0.3024 | dGMP, Average (1hr): 0.08489 | dTMP, Average (1hr): -0.02247 | dTTP, Average (1hr): 0.2046 | dUMP, Average (1hr): 1.26 | myo-Inositol, Average (1hr): -0.07002 | sn-Glycerol 3-Phosphate, Average (1hr): 1.379 | sn-glycero-3-Phospho-1-inositol, Average (1hr): -0.128 | 1-3 (2-3)-Bisphopshateglycerate, Average (3hr): 0.8355 | 2-Hydroxyglutarate, Average (3hr): -0.6103 | 2-Ketoglutarate, Average (3hr): -0.8232 | 3-Phoshoglycerate, Average (3hr): 0.07426 | 3-Phospho-serine, Average (3hr): -0.4035 | 4-Aminobutanoate, Average (3hr): 0.8488 | 5-Phosphoribosyl-Pyrophosphate, Average (3hr): 0.5077 | 6-Phosphogluconate, Average (3hr): -0.2282 | ADP, Average (3hr): -0.7166 | AMP, Average (3hr): -0.5704 | ATLS, Average (3hr): -0.2347 | ATP, Average (3hr): -0.2177 | Acetyl-CoA, Average (3hr): -0.7235 | Acetyl-L-alanine, Average (3hr): -0.3599 | Adenine, Average (3hr): -0.8446 | Arginine, Average (3hr): 0.2396 | Asparagine, Average (3hr): -0.1753 | Aspartate, Average (3hr): -0.3736 | CDP, Average (3hr): -0.5752 | CDP-ethanolamine, Average (3hr): 0.02366 | CMP, Average (3hr): -0.08882 | CTP, Average (3hr): -0.3119 | Cholesteryl sulfate, Average (3hr): -0.1335 | Citrate, Average (3hr): -0.1028 | CoA, Average (3hr): -0.556 | Cyclic AMP, Average (3hr): -0.7854 | Cytidine, Average (3hr): -0.2914 | DALT, Average (3hr): -0.8981 | DEVG, Average (3hr): -0.08263 | DGLA, Average (3hr): -0.7349 | DLS, Average (3hr): -0.6175 | Deoxycytidine, Average (3hr): 1.594 | Dihydroorotate, Average (3hr): -1.064 | ESFG, Average (3hr): -0.07747 | EVGG, Average (3hr): -0.1694 | Erythrose 4-Phosphate, Average (3hr): -0.2579 | FAD, Average (3hr): -0.4239 | FMN, Average (3hr): -0.4985 | Farnesyl diphosphate, Average (3hr): -0.04123 | Folate, Average (3hr): -0.3602 | Fructose-1-6-Bisphosphate, Average (3hr): 1.146 | Fructose-6-Phosphate, Average (3hr): 0.05598 | GDP, Average (3hr): -1.202 | GDP-mannose, Average (3hr): -0.4414 | GMP, Average (3hr): -1.665 | GTP, Average (3hr): -0.7051 | Geranylgeranyl pyrophosphate, Average (3hr): -0.6827 | Glucono-1-4-Lactone, Average (3hr): 1.992 | Glucose-6-Phosphate, Average (3hr): -0.3489 | Glutamate, Average (3hr): -0.07518 | Glutamine, Average (3hr): 0.8027 | Glutathione Disulfide, Average (3hr): -0.1266 | Glutathione, Average (3hr): -0.02749 | Glyceraldehyde 3-Phosphate, Average (3hr): -0.5897 | Glycerone Phosphate, Average (3hr): 0.4029 | HLD, Average (3hr): -0.9223 | HVDD, Average (3hr): -1.392 | Histidine, Average (3hr): 0.6908 | Homoserine, Average (3hr): 0.249 | Hydroxy-L-proline, Average (3hr): 0.1081 | Hypoxanthine, Average (3hr): 0.2683 | IDP, Average (3hr): 0.1036 | IMP, Average (3hr): -0.04113 | Inosine, Average (3hr): 0.2492 | Isoleucine, Average (3hr): 0.01345 | LD, Average (3hr): 0.008648 | Lactate, Average (3hr): 2.632 | Leucine, Average (3hr): -0.1293 | Lysine, Average (3hr): 0.8307 | Malate, Average (3hr): -0.2233 | Mannitol, Average (3hr): -0.2308 | Methionine, Average (3hr): -0.1652 | Myristic acid, Average (3hr): -0.3456 | N-Acetyl-glutamate, Average (3hr): -0.8123 | N-Carbamoyl-L-Aspartate, Average (3hr): -1.502 | NAD+, Average (3hr): 0.03216 | NADH, Average (3hr): -1.72
